The values below come from US10479792B2, “Compounds” (GlaxoSmithKline Intellectual Property Development Limited, priority 2015, dated 2019).

Some results are limits rather than exact numbers.

In one data set the test system is THP-1 cells. As to the kind of experiment: Intramacrophage Leishmania donovani assay (Assay 1), THP-1 cell count (cytotoxicity readout). Format: cell-based. Conditions: human, 96 h incubation, read-out: cytotoxicity against THP-1 cells, pEC50 (converted). The procedure: Assay 1. Intramacrophage Leishmania donovani Assay
The intramacrophage Leishmania assay was performed using a modified version of the method described in De Rycker et al. (Antimicrob Agents Chemother. 2013 July; 57(7):2913-22. Comparison of a high-throughput high-content intracellular Leishmania donovani assay with an axenic amastigote assay. De Rycker M, Hallyburton I, Thomas J, Campbell L, Wyllie S, Joshi D, Cameron S, Gilbert I H, Wyatt P G, Frearson J A, Fairlamb A H, Gray D W.). Procedure: 350 nl of compound was pre-dispensed into 384 well sterile intermediary plates. For single point screening, amphotericin B was added to all wells of column 24 as a positive control (final concentration 2 μM) and DMSO to column 23. For potency determinations, ten-point, one in three dilution curves were created with the highest concentration being 50 μM and on each plate a control curve of amphotericin B was included. Controls were as follows: columns 11 and 12: DMSO, columns 23 and 24: amphotericin B (final concentration 2 μM). To the intermediary plates, 35 μl of THP-1 media was added and plates were shaken for >5 min to ensure complete mixing. […] For each well, i) THP-1 cell count (cytotoxicity readout) and ii) average number of amastigotes per cell (potency readout) were calculated, both in terms of pEC50 values.

A short description of data set [1]: Solubility assay, ChemiLuminescent Nitrogen Detection (CLND) (Assay 4). Format: physicochemical. Conditions: phosphate buffered saline (PBS) pH 7.4, aqueous buffer, kinetic from dmso stock, PBS pH 7.4, from 10 mM DMSO stock, 1 h at room temperature. Here is the method: Assay 4. Solubility Assay—ChemiLuminescent Nitrogen Detection (CLND) I. Compounds A 10 mM DMSO stock solution of the compound was prepared. Solvents and Buffers Organic solvents of HPLC grade were used. Ultra pure water (Milli-Q grade) was used. Buffers were prepared with ultra pure water and filtered using 0.45μ cameo filters. Aqueous Buffer Solution: Phosphate Buffer Saline (PBS) @ pH 7.4 was prepared from Sigma dry powder packs, P-3813. Each one was diluted to 1 liter with deionised water. The pH was checked before the solution was used II. Procedures. • a) DMSO concentration was measured. DMSO blanks and ondansetron and caffeine standards were added to the plate (column 12, A, B, C, & D for the blanks and E, F, G, & H for the standards). Plates were covered with foil. When the UV and CLND detectors baselines appeared to be stable, the CLND was zeroed. • b) Once DMSO concentration measurements were complete, a filtration plate was prepared from each parent plate by diluting 5 μl of the 10 mM DMSO stock solution to […] with pH7.4 PBS. • c) After the plates were prepared, they were covered with a plate lid and left to incubate for 1 h at room temperature. • d) Sample was filtered using MILLIPORE MultiScreen Solubility (MSSLBPC10) Filtration Plates, to NUNC V well plates. […]

In the next data set the test system is RnH9c2 cells. The data set is described as follows: Trypanosoma cruzi intracellular assay (Assay 2), host cell cytotoxicity. In kind it is cell-based. Conditions: rat, H9C2 cardiomyocytes infected with Trypanosoma cruzi, 72 h incubation, read-out: cytotoxicity against RnH9c2 cells, pEC50 (converted). The procedure:
Compounds were dispensed into black 384-well assay plates (Greiner) by acoustic dispensing (LabCyte ECHO). For potency determinations, eleven-point, one in three dilution curves were generated, with a top concentration of 50 μM. H9C2 rat cardiomyocytes cells were dispensed in T225 tissue culture flasks and after 4 hours they were infected during 18 hours with T. cruzi trypomastigotes in the same T225 tissue culture flasks at a multiplicity of infection of 1. Next, any remaining free trypomastigotes were washed away with PBS and the infected H9C2 cells were harvested by trypsinisation. The infected H9C2 cells were then plated into 384-well plates containing the compounds to be tested, at 2500 cells per well in DMEM media with 2% FBS, 1% Penicillin/Streptomicin, 2 mM L-Glutamine, 1 mM Na Pyruvate and 25 mM HEPES. After 72 h incubation at 37° C. in presence of 5% CO2, the plates were fixed and stained with 4% formaldehyde and 2 μM Draq5 for 3 hours at room temperature. The plates were imaged on a Perkin Elmer Opera high-content imaging system using a 20× air objective. Images were analyzed using the Acapella building blocks system (Perkin Elmer). The image analysis algorithm first identified the H9C2 nuclei followed by demarcation of the cytoplasm and identification of intracellular amastigotes. This algorithm reported mean number of parasites per H9C2 cell, the percentage of infected H9C2 cells and the total number of H9C2 cells.

Regarding `O=C(Nc1ccc(F)c(-c2ccn3c(N4CCOCC4)cnc3n2)c1)N1CCCC1` [Example 4, N-(4-fluoro-3-(3-morpholinoimidazo[1,2-a]pyrimidin-7-yl)phenyl)pyrrolidine-1-carboxamide], the EC50 at 96 h with THP-1 cells is over 50.1 µM. Moreover, in data set [1], the solubility (in general, how much of the substance goes into solution per volume) at 1 h is over 444 µM. Also, the EC50 at 72 h in the data set with RnH9c2 cells was over 50.1 µM.
